Source: patent US20250213701A1, “MEDICAMENT FOR TREATING HUMAN TUMOR BASED ON ERF3A-TARGETING PROTEOLYSIS MECHANISM” (SUZHOU DEGEN BIO-MEDICAL CO., LTD., priority 2022, published 2025)

Key:
Assay type in all cases: cell-based
SRD5A3 = biological target: T1, SRD5A3 (Homo sapiens, UniProt Q9H8P0); assay: Western blot assay in PC-3 cells: SRD5A3; conditions: different concentrations at 24 h (FIG. 9)
T1 construct: The downregulation of SRD5A3 and GSPT1 (eRF3a) proteins in PC-3 and HepG2 cells by C59; endogenous in cells; host or cells: 22Rv1, PC-3, HepG2
T1 sequence (Q9H8P0 1-318): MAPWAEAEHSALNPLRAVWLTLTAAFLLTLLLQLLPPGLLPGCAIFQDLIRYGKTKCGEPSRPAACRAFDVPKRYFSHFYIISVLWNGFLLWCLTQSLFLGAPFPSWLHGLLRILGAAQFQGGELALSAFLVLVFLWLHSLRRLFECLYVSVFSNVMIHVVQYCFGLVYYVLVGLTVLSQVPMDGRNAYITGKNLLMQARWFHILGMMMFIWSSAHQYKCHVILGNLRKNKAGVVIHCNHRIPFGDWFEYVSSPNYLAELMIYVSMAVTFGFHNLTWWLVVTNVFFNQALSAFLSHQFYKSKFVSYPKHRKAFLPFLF
From the text: Example 84: Western Blot Assay of Compound C59 in 22Rv1, PC-3, and HepG2 Cells
(1) Materials: 22Rv1, PC-3, and HepG2 cell, anti-SRD5A1 antibody (ab167606), anti-SRD5A2 antibody (ab124877), anti-SRD5A3 antibody (PA5-107029), anti-androgen receptor (AR) antibody (CST, No. 5153), anti-GSPT1 antibody (Abcam, ab234433), anti-GADPH antibody (CST, No. 5174), anti-c-Myc antibody (CST, No. 8583), anti-α-tublin antibody (CST, No. 2125), anti-rabbit IgG, HRP-linked antibody (CST, No. 7074), electrophoresis device and membrane transfer device (LIUYI, BEIJING; DYCZ-24DN)
Cell seeding: 22Rv1 (Cell Bank of the Chinese Academy of Sciences, TCHu100), PC-3 (Cell Bank of the Chinese Academy of Sciences, SCSP-532) and HepG2 cells (Cell Bank of the Chinese Academy of Sciences, TCHu72) were subcultured and trypsinized to prepare 6×10^5 cells/mL suspensions, seeded on 6-well plates (3 mL/well), and cultured overnight in a cell incubator at 5% CO2 and 37° C. […]
Protein quantification: The protein was quantified using a BCA protein quantification kit. […]
Western immunoblot assay (or Western blot, WB): SDS-PAGE gel at a proper concentration was prepared according to the molecular weight of the target protein: for example, the concentration of the separation gel was 8% and the concentration of the stacking gel was 5%. The loading volume was adjusted according to the protein quantification results. […]

C-33 A cells = assay: Anti-proliferative toxicity of C63 in tumor cell lines (CCK8): C-33 A; conditions: Homo sapiens, 72 h, 3 days, read-out: Inhibition rate
Experimental: (§1) Example 83: Detection of Anti-Proliferative Toxicity of C63 in Some Tumor Cell Lines
C-33 A cells (purchased from the Cell Bank of the Chinese Academy of Sciences, Cat. No. TCHu176) were subcultured in a culture medium (MEM medium+1% penicillin-streptomycin dual-antibiotic solution+10% fetal bovine serum) in an incubator at 5% carbon dioxide and 37° C.
C-33 A cells were seeded at 5000 cells/well (90 μL) on a 96-well plate and cultured for 24 h.
(§2) 10 mM compound stock solutions were prepared in DMSO.
(§3) The compound stock solution was diluted with DMSO to give DMSO solutions 1-9 at concentrations of 0 μM, 2500 μM, 500 μM, 100 μM, 20 μM, 4 μM, 0.8 μM, 0.16 μM, and 0.032 μM.
(§4) 2 μL of each of solutions 1-9 was added to 98 μL of the medium to give mixed solutions 11-19 of the compound and the medium.
(§5) 10 μL of each of solutions 11-19 was added to the above cell seed solution to give a total volume of 100 μL (90 μL+10 μL).
(§6) The concentrations of the compound in the wells were 0 μM, 5.0 μM, 1.0 μM, 0.2 μM, 0.04 μM, 0.008 μM, 0.0016 μM, 0.00032 μM, and 0.000064 μM. All concentrations were in triplicate.
(§7) After the above-treated cells were cultured for 3 days, 10 μL of the CCK8 solution (DOJINDO, Cat. No. PF725) was added to each well. The plate was incubated in an incubator at 37° C. for 1-4 h and then detected on a microplate reader for the reading at 450 nm.

SNU-1 cells = assay: Anti-proliferative toxicity of C63 in tumor cell lines (CCK8): SNU-1; conditions: Homo sapiens, SNU1, 72 h, 3 days, read-out: Inhibition rate
Experimental: as §1
SNU-1 cells (purchased from the Cell Bank of the Chinese Academy of Sciences, Cat. No. TCHu230) were subcultured in a culture medium (RPMI-1640 medium+1% penicillin-streptomycin dual-antibiotic solution+10% fetal bovine serum) in an incubator at 5% carbon dioxide and 37° C.
SNU-1 cells were seeded at 5000 cells/well (90 μL) on a 96-well plate and cultured for 24 h.
as §2, §3, §4, §5, §6, §7

C[C@]12C=CC(=O)N[C@@H]1CC[C@@H]1[C@@H]2CC[C@]2(C)[C@@H](C(=O)Nc3cccc(N[C@@H]4CCC[C@@H](Nc5cccc6c5C(=O)N(C5CCC(=O)NC5=O)C6=O)C4)c3)CC[C@@H]12 (stereo partly drawn) [C59, N-(3-(N—(N-(4-(2-(3-(2,6-dioxopiperidine))-isoindole-1,3-dione))-1R,3R-cyclohexanediamine))phenyl)-3-oxo-4-aza-5α-androst-1-ene-17β-carboxamide]
downregulation of SRD5A3 protein (Western blot) (SRD5A3): downregulation

C[C@]12C=CC(=O)N[C@@H]1CC[C@@H]1[C@@H]2CC[C@]2(C)[C@@H](C(=O)Nc3cccc(N[C@@H]4CCC[C@@H](Nc5cccc6c5C(=O)N([C@H]5CCC(=O)NC5=O)C6=O)C4)c3)CC[C@@H]12 [C63, N-(3-(N—(N-(4-(2-(3S-(2,6-dioxopiperidine))-isoindole-1,3-dione))-1R,3R-cyclohexanediamine))phenyl)-3-oxo-4-aza-5α-androst-1-ene-17β-carboxamide]
inhibition at 64 pM (C-33 A cells; 0.000064 μM): 21.5%
inhibition at 0.00032 µM (C-33 A cells; 0.000320 μM): 15.9%
inhibition at 0.0016 µM (C-33 A cells; 0.001600 μM): 25.4%
inhibition at 0.008 µM (C-33 A cells; 0.008000 μM): 35.5%
inhibition at 0.04 µM (C-33 A cells; 0.040000 μM): 48.3%
inhibition at 0.2 µM (C-33 A cells; 0.200000 μM): 56.7%
inhibition at 1 µM (C-33 A cells; 1.000000 μM): 63.9%
inhibition at 5 µM (C-33 A cells; 5.000000 μM): 72.3%
inhibition at 64 pM (SNU-1 cells; 0.000064 μM): 10.2%
inhibition at 0.00032 µM (SNU-1 cells; 0.000320 μM): 28.9%
inhibition at 0.0016 µM (SNU-1 cells; 0.001600 μM): 65.1%
inhibition at 0.008 µM (SNU-1 cells; 0.008000 μM): 75.2%
inhibition at 0.04 µM (SNU-1 cells; 0.040000 μM): 82.7%
inhibition at 0.2 µM (SNU-1 cells; 0.200000 μM): 82%
inhibition at 1 µM (SNU-1 cells; 1.000000 μM): 80.9%
inhibition at 5 µM (SNU-1 cells; 5.000000 μM): 79.9%
